Experimental data published in patent US4214091A, “Antibiotic No. 2-200 and process for producing thereof” (Chugai Seiyaku Kabushiki Kaisha, priority 1977, dated 1980).
In brackets after ≈: the same amount, converted by molar mass. Like-named read-outs stand apart in the source and are kept apart here.

Experiments:
gram negative bacteria = assay: antibacterial activity (general statement); assay type: cell-based
5-week-old ddY male mice = details: mouse, in vivo
Procedure: The crystal of the antibiotic No. 2-200 obtained in Example 4 was floated in sterile distilled water, mixed with 5% caustic soda to adjust the pH to 7.0, and dissolved to make a solution. The solution was adminstered to 5-week-old ddY male mice to examine its actuate toxicity as well as delayed toxicity. During 10 days that followed the administration, the weight of each mouse, its food intake and water intake were measured.

[1] = test system: bacteria of genus Salmonella; assay: antibacterial activity (general statement); assay type: cell-based
Escherichia coli No. 9 = assay: MIC by agar plate dilution method; assay type: cell-based; details: NO.9, 24 h, 37° C., read-out: Minimum inhibitory concentration
Procedure: (§1) The test organisms were incubated by agar plate dilution method at 37° C. for 24 hours, after which their growth was observed. The test organisms were incubated on an NB medium (product of Eiken Kagaku) at 37° C. overnight, and each culture obtained was diluted 10^3 - to 10^4 -fold and stamped on an agar plate. The following agar plate media were used:
(§2) NA: nutrient agar (product of Eiken Kagaku)
(§3) NA+G6P: glucose-6-phosphoric acid (50 μg/ml) plus nutrient agar
(§4) Anti-3A: antibiotic medium No. 3 agar (product of Difco)
(§5) MHA: Mueller Hinton Agar (product of Eiken Kagaku)

[2] = test system: Serratia marrcescens T-50; assay: MIC by agar plate dilution method; assay type: cell-based; details: for MIC: Serratia
Procedure: as §1, §2, §3, §4, §5

[3] = test system: Staphylococcus aureus JU-5; assay: MIC by agar plate dilution method; assay type: cell-based; details: JU5, 24 h, 37° C., read-out: Minimum inhibitory concentration
Procedure: as §1, §2, §3, §4, §5

[4] = test system: Serratia marrcescens FU-111; assay: MIC by agar plate dilution method; assay type: cell-based; details: FU111, 24 h, read-out: Minimum inhibitory concentration
Procedure: as §1, §2, §3, §4, §5

Shigella sonnei = assay: MIC by agar plate dilution method; assay type: cell-based; details: 24 h, 37° C., read-out: Minimum inhibitory concentration
Procedure: as §1, §2, §3, §4, §5

Sarcina lutea = assay: MIC by agar plate dilution method; assay type: cell-based; details: Micrococcus luteus
Procedure: as §1, §2, §3, §4, §5

Proteus mirabilis 1287 = assay: MIC by agar plate dilution method; assay type: cell-based; details: 37° C., 24 hours
Procedure: as §1, §2, §3, §4, §5

Proteus mirabilis 9' = assay: MIC by agar plate dilution method; assay type: cell-based; details: 24 h, 37° C., read-out: Minimum inhibitory concentration
Procedure: as §1, §2, §3, §4, §5

[5] = test system: Staphylococcus aureus 209P; assay: MIC by agar plate dilution method; assay type: cell-based; details: 24 h, 37° C., read-out: Minimum inhibitory concentration
Procedure: as §1, §2, §3, §4, §5

Salmonella paratyphi A = assay: MIC by agar plate dilution method; assay type: cell-based; details: Salmonella enterica, 24 h
Procedure: as §1, §2, §3, §4, §5

[6] = test system: Pseudomonas aeruginosa G-75; assay: MIC by agar plate dilution method; assay type: cell-based; details: 37° C., 24 hours
Procedure: as §1, §2, §3, §4, §5

[7] = test system: Klebsiella pneumoniae 15c; assay: MIC by agar plate dilution method; assay type: cell-based; details: 24 h, read-out: Minimum inhibitory concentration
Procedure: as §1, §2, §3, §4, §5

Salmonella typhi TANAKA = assay: MIC by agar plate dilution method; assay type: cell-based; details: Salmonella enterica, 24 h
Procedure: as §1, §2, §3, §4, §5

Shigella flexneri 2b = assay: MIC by agar plate dilution method; assay type: cell-based; details: 24 h, 37° C., read-out: Minimum inhibitory concentration
Procedure: as §1, §2, §3, §4, §5

Bacillus cereus = assay: MIC by agar plate dilution method; assay type: cell-based; details: 37° C., 24 hours
Procedure: as §1, §2, §3, §4, §5

[8] = test system: Pseudomonas aeruginosa J-272; assay: MIC by agar plate dilution method; assay type: cell-based; details: 37° C., 24 hours
Procedure: as §1, §2, §3, §4, §5

[9] = test system: Klebsiella pneumoniae 3K25; assay: MIC by agar plate dilution method; assay type: cell-based; details: 3K25, 24 h, 37° C., read-out: Minimum inhibitory concentration
Procedure: as §1, §2, §3, §4, §5

[10] = test system: Staphylococcus epidermidis T0-3; assay: MIC by agar plate dilution method; assay type: cell-based; details: T03, 24 h, 37° C., read-out: Minimum inhibitory concentration
Procedure: as §1, §2, §3, §4, §5

[11] = test system: mutant of Pseudomonus aeroginosa, for example, G-75, M-57740; assay: growth inhibition of β-lactam-sensitive mutant; assay type: cell-based; details: mutant sensitive to a β-lactam antibiotic
From the text: The present inventors further continued their studies and succeeded in isolating from a culture of actinomycete an effective substance as a crystal, which was subjected to X-ray diffractometry to determine its structure. […] This invention is a development of studies based on these findings.

[12] = test system: bacteria of genus Serratia; assay: antibacterial activity (general statement); assay type: cell-based
[13] = NA + G6P (50 μg/ml), 37° C., 24 hours
[14] = read-out: Minimum inhibitory concentration, Anti-3A, 37° C.
[15] = read-out: Minimum inhibitory concentration, MHA, 37° C.
[16] = read-out: Minimum inhibitory concentration, NA + G6P (50 μg/ml), 37° C.
[17] = read-out: Minimum inhibitory concentration, NA, 37° C.

## C=CC(C)=CC1(C)SC(=O)C(C)=C1O (single isomer, unassigned) [No. 2-200]
Gram negative bacteria
  antibacterial activity to gram negative bacteria: exhibits antibacterial activity
5-week-old ddY male mice
  delayed toxicity: entirely free from delayed toxicity
[1]
  antibacterial activity to bacteria of genus Salmonella: particularly strong antibacterial activity
Escherichia coli No. 9; Anti-3A
  MIC: 100 µg/mL (≈ 476 µM)
Escherichia coli No. 9; MHA
  MIC: 50 µg/mL (≈ 238 µM)
Escherichia coli No. 9; NA + G6P (50 μg/ml)
  MIC: 50 µg/mL
Escherichia coli No. 9; NA
  MIC: 50 µg/mL (≈ 238 µM)
[2]; [13]
  Minimum inhibitory concentration: 50 µg/mL
[2]; T50, 24 h, read-out: Minimum inhibitory concentration, Anti-3A, 37° C.
  MIC: 12.5 µg/mL (≈ 59.4 µM)
[2]; T50, 24 h, read-out: Minimum inhibitory concentration, MHA, 37° C.
  MIC: 1.56 µg/mL (≈ 7.42 µM)
[2]; T50, NA, 37° C., 24 hours, read-out: Minimum inhibitory concentration
  MIC: 50 µg/mL (≈ 238 µM)
[3]; Anti-3A
  MIC: > 400 µg/mL
[3]; MHA
  MIC: 100 µg/mL (≈ 476 µM)
[3]; NA + G6P (50 μg/ml)
  MIC: ≥ 400 µg/mL
[3]; NA
  MIC: > 400 µg/mL
[4]; Anti-3A, 37° C., 24 hours
  MIC: 25 µg/mL (≈ 119 µM)
[4]; [13]
  MIC: 50 µg/mL
[4]; NA, 37° C., 24 hours
  MIC: 50 µg/mL (≈ 238 µM)
[4]
  MIC: 6.25 µg/mL (≈ 29.7 µM)
Shigella sonnei; Anti-3A
  MIC: 100 µg/mL (≈ 476 µM)
Shigella sonnei; MHA
  MIC: 50 µg/mL (≈ 238 µM)
Shigella sonnei; NA + G6P (50 μg/ml)
  MIC: 100 µg/mL
Shigella sonnei; NA
  MIC: 100 µg/mL (≈ 476 µM)
Sarcina lutea; 24 h, read-out: Minimum inhibitory concentration, Anti-3A, 37° C.
  MIC: 12.5 µg/mL (≈ 59.4 µM)
Sarcina lutea; 24 h, read-out: Minimum inhibitory concentration, NA + G6P (50 μg/ml), 37° C.
  MIC: 12.5 µg/mL
Sarcina lutea; 24 h, read-out: Minimum inhibitory concentration, NA, 37° C.
  MIC: 12.5 µg/mL (≈ 59.4 µM)
Sarcina lutea; MHA, 37° C., 24 hours, read-out: Minimum inhibitory concentration
  MIC: 25 µg/mL (≈ 119 µM)
Proteus mirabilis 1287; Anti-3A
  Minimum inhibitory concentration: 50 µg/mL (≈ 238 µM)
Proteus mirabilis 1287; MHA
  Minimum inhibitory concentration: 50 µg/mL (≈ 238 µM)
Proteus mirabilis 1287; NA + G6P (50 μg/ml)
  Minimum inhibitory concentration: 50 µg/mL
Proteus mirabilis 1287; Proteus mirabilis, 1287, NA, read-out: Minimum inhibitory concentration
  MIC: 50 µg/mL (≈ 238 µM)
Proteus mirabilis 9'; Anti-3A
  MIC: 100 µg/mL (≈ 476 µM)
Proteus mirabilis 9'; MHA
  MIC: 200 µg/mL (≈ 951 µM)
Proteus mirabilis 9'; NA + G6P (50 μg/ml)
  MIC: 50 µg/mL
Proteus mirabilis 9'; NA
  MIC: 50 µg/mL (≈ 238 µM)
[5]; Anti-3A
  MIC: 25 µg/mL (≈ 119 µM)
[5]; MHA
  MIC: 50 µg/mL (≈ 238 µM)
[5]; NA + G6P (50 μg/ml)
  MIC: ≥ 50 µg/mL
[5]; NA
  MIC: > 50 µg/mL
Salmonella paratyphi A; [14]
  MIC: 50 µg/mL (≈ 238 µM)
Salmonella paratyphi A; [15]
  MIC: 3.12 µg/mL (≈ 14.8 µM)
Salmonella paratyphi A; [16]
  MIC: 50 µg/mL
Salmonella paratyphi A; [17]
  MIC: 50 µg/mL (≈ 238 µM)
[6]; Anti-3A
  Minimum inhibitory concentration: 6.25 µg/mL (≈ 29.7 µM)
[6]; MHA
  Minimum inhibitory concentration: 6.25 µg/mL (≈ 29.7 µM)
[6]; NA + G6P (50 μg/ml)
  Minimum inhibitory concentration: 6.25 µg/mL
[6]; Pseudomonas aeruginosa, G75, NA, read-out: Minimum inhibitory concentration
  MIC: 6.25 µg/mL (≈ 29.7 µM)
[7]; Anti-3A, 37° C., 24 hours
  MIC: 50 µg/mL (≈ 238 µM)
[7]; [13]
  MIC: 100 µg/mL
[7]; NA, 37° C., 24 hours
  MIC: 100 µg/mL (≈ 476 µM)
[7]
  MIC: 12.5 µg/mL (≈ 59.4 µM)
Salmonella typhi TANAKA; [14]
  MIC: 12.5 µg/mL (≈ 59.4 µM)
Salmonella typhi TANAKA; [15]
  MIC: 3.12 µg/mL (≈ 14.8 µM)
Salmonella typhi TANAKA; [16]
  MIC: 12.5 µg/mL
Salmonella typhi TANAKA; [17]
  MIC: 12.5 µg/mL (≈ 59.4 µM)
Shigella flexneri 2b; Anti-3A
  MIC: 3.12 µg/mL (≈ 14.8 µM)
Shigella flexneri 2b; MHA
  MIC: 1.56 µg/mL (≈ 7.42 µM)
Shigella flexneri 2b; NA + G6P (50 μg/ml)
  MIC: 6.25 µg/mL
Shigella flexneri 2b; NA
  MIC: 6.25 µg/mL (≈ 29.7 µM)
Bacillus cereus; Anti-3A
  Minimum inhibitory concentration: 50 µg/mL (≈ 238 µM)
Bacillus cereus; Bacillus cereus, NA, read-out: Minimum inhibitory concentration
  MIC: 50 µg/mL (≈ 238 µM)
Bacillus cereus; MHA
  Minimum inhibitory concentration: 50 µg/mL (≈ 238 µM)
Bacillus cereus; NA + G6P (50 μg/ml)
  Minimum inhibitory concentration: 50 µg/mL
[8]; Anti-3A
  Minimum inhibitory concentration: > 400 µg/mL
[8]; MHA
  Minimum inhibitory concentration: > 400 µg/mL
[8]; NA + G6P (50 μg/ml)
  Minimum inhibitory concentration: > 400 µg/mL
[8]; Pseudomonas aeruginosa, J272, NA, read-out: Minimum inhibitory concentration
  MIC: > 400 µg/mL
[9]; Anti-3A
  MIC: 50 µg/mL (≈ 238 µM)
[9]; MHA
  MIC: 50 µg/mL (≈ 238 µM)
[9]; NA + G6P (50 μg/ml)
  MIC: 100 µg/mL
[9]; NA
  MIC: 200 µg/mL (≈ 951 µM)
[10]; Anti-3A
  MIC: 100 µg/mL (≈ 476 µM)
[10]; MHA
  MIC: 50 µg/mL (≈ 238 µM)
[10]; NA + G6P (50 μg/ml)
  MIC: 50 µg/mL
[10]; NA
  MIC: 50 µg/mL (≈ 238 µM)
[11]
  inhibition of growth: strongly inhibits the growth
[12]
  antibacterial activity to bacteria of genus Serratia: particularly strong antibacterial activity
